Test results taken from patent US7824853B2, “Complex comprising at least two biospecific elements separated by a nucleic acid linker e.g. for identification of drug delivery candidates combinatorial library of such complexes” (Avaris AB, priority 2002, dated 2010).

Test system: peripheral blood mononuclear cells, population with the characteristics of monocytes
Test: Monocyte binding assay (FACS, binding and uptake of fluorescent complexes)
Format: cell-based
Conditions: monocytic population; incubated one hour at +37° C., then trypsinisation; 6-FAM labelled 48-mer oligo
Text: Oligonucleotides (48-mers) with recognition sites for 2 different peptide-nucleic-acid sequences and with a fluorescent label were designed and manufactured. Each binding site corresponds to 15 nucleotides. The 48-mer oligos contain in the 5′ end the fluorescent label, 6-FAM, followed by three thymidine residues as spacer. There is a single central target site (GGAAGGGCCGAGCGC, Seq. Id. No. 2) surrounded by two identical adjacent target sites (CAATCGGAACGGATC, Seq. Id. No. 1).
Peptide-nucleic-acid-linker3-peptide (=ligand) fusions were generated as described before (Brandén L J, Mohamed A J, Smith C I E. A peptide nucleic acid-nuclear localisation signal fusion that mediates nuclear transport of DNA. Nature Biotechnol 17: 784-787, 1999). […]
Peptide-nucleic-acid-linker3-peptide (=ligand) fusions were hybridised to oligonucleotides in order to generate the novel biomolecular complexes. […] Following the incubation cells were analysed in a fluorescent activated cell sorter (FACS SCAN, Becton Dickinson, Mountain View, Calif.).

## TAT (FE2): PNA-linker3-HIV TAT peptide (grkkrrqrrrppqc) fusion hybridised to central target site Seq. Id. No. 2 of the 48-mer oligo
  Percentage of fluorescent cells: 0.93%
